# What was measured:
# [1] = in vivo pharmacokinetics, plasma anastrozole by LC-MS/MS; set-up: species or system female Sprague-Dawley rats
# Protocol: A 91-day pharmacokinetic study was conducted on female Sprague-Dawley rats (≧250 g). Test article animals were dosed by a single rod implantation, while positive drug control animals were dosed by a single injection of an ethanol:water (3:7, v/v) solution of equivalent dose. Prior to dosing, all animals were anesthetized by intraperitoneal injection of a cocktail containing ketamine HCl (75 mg/kg) and Xylazine HCl (5 mg/kg). Following anesthesia, the dorsal surface of all animals were shaved and prepared for aseptic administration by wiping with betadine and 70% isopropyl alcohol (3 times each). Animals were placed on a sterile surgical field and covered with Steridrape™. Dosing sites were closed with wound clips. The administration site was circled with indelible ink for future identification of location. Following dosing, all animals were placed in a warmed recovery area and observed until recovered from anesthesia and ambulatory. All animals were observed throughout dosing and each scheduled collection. Body weights were collected weekly in addition to the pre-dose body weight during the duration of the study. Serial blood samples were collected via tail vein or jugular vein at pre-dose, 2 h, 6 h, 24 h (1 d), 2 d, 4 d, 7 d, 10 d, 14 d, 21 d, 28 d, 35 d, 42 d, 49 d, 56 d, 63 d, 70 d, 77 d, 84 d and 91 d and analyzed via LC-MS/MS. Blood samples were stored on wet ice until processed to plasma by centrifugation within 30 min of collection. Plasma were stored at −80° C. until LC-MS/MS analysis.
# Briefly, 150 μl of frozen in vivo sample or blank plasma (for double blank, blank and standards) was completely thawed and briefly centrifuged (2000 G, 3 min, 4° C.). […] For extraction, 1 ml diethyl ether:dichloromethane (7:3, v/v) was added to 25 μl of plasma (blank, standard or sample) and 10 μl of aqueous internal standard (100 ng/ml Chlorpheniramine) or deionized water (for double blank) in a glass centrifuge tube using glass serological pipettes and vortexed for 40 s. […]
# The auto-sampler of the LC system was kept at 5° C. […] The limit of quantitation (LOQ) was 0.6 ng/ml.
# [2] = effective steady state diffusion coefficient from cylindrical silk reservoir; assay type: physicochemical; conditions: anastrozole diffusion in silk reservoir rods
# Excerpt: and different effective length, le values of 10 or 30 mm.
# [3] = cited from earlier work
# [4] = cited from earlier work; remark: listed apart in the source
# [5] = cited from earlier work; remark: listed apart in the source
# [6] = cited from earlier work; remark: listed apart in the source
# [7] = stability of anastrozole under in vitro release conditions (LC-MS/MS); conditions: deionized water, 0.02 wt. % NaN3, 37° C., longest inter-sampling duration 1 week
# Protocol: The release volume was determined to ensure perfect sink conditions in case of a complete burst release according to:
# where V, L and S are the release volume, drug loading and aqueous solubility, respectively. At pre-determined time points, 1 ml of the release medium was sampled. After each sampling, the whole medium was exchanged with fresh buffer.
compound,measurement,setting,value
CC(C)(C#N)c1cc(Cn2cncn2)cc(C(C)(C)C#N)c1 [anastrozole],half-life,"[1]; female, Sprague-Dawley, rat, plasma, sc, single s.c. injection of solution, high and low dose, read-out: apparent terminal elimination half-life (converted)",~6 h
same,time of peak plasma concentration,"[1]; single s.c. injection of solution (water:ethanol 7:3), high (14 mg) and low (5.8 mg) dose",6 h
same,time to decline to background plasma levels,"[1]; single s.c. injection of solution, high and low dose",≤ 96 h
same,effective steady state diffusion coefficient De,[2],2.4×10^−8 cm^2/s
same,water solubility,[3]; at 25° C.,500 µg/mL
same,aqueous solubility Cs of anastrozole in water,[3]; value used in diffusion equation,5000 µg/mL
same,log P(octanol/water),[4],1.58
same,pKa,[5],1.4
same,terminal elimination half-life t1/2,[6]; Product Monograph value,50 h
same,volume of distribution V,[6]; Product Monograph value,74 L
same,steady state plasma concentration Css,[6]; factors in reported accumulation,25 ng/mL
same,degradation of Anastrozole under release conditions,[7],No significant degradation

# — patent US20150238617A1, “SILK RESERVOIRS FOR SUSTAINED DELIVERY OF ANTI-CANCER AGENTS” (TUFTS UNIVERSITY, priority 2012, published 2015)
